Six molecules from ChEMBL document CHEMBL1128364 (J Med Chem, 1995) can be followed below.

Bounds are passed on as bounds.

Experiment [1] addresses T1, Oxytocin receptor (Rattus norvegicus, UniProt P70536).
T1 sequence (P70536 whole entry): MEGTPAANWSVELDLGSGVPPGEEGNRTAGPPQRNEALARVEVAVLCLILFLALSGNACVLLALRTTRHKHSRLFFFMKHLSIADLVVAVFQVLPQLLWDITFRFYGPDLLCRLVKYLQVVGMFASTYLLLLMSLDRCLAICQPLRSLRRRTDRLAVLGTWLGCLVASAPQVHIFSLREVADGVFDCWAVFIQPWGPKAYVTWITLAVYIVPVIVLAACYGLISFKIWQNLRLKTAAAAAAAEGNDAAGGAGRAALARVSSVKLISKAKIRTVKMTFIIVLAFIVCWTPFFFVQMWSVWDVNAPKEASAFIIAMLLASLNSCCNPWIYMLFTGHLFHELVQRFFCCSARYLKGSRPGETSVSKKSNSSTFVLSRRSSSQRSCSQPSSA
Put plainly: (§1) Compound was evaluated for the oxytocic activity with 0.5 mM Mg2+. The settings on record: read-out: pA2 (converted).

The target in experiment [2] is T1, Oxytocin receptor. The experiment is described as follows: (§2) Compound was evaluated for the oxytocic activity with out Mg2+. The settings on record: read-out: pA2 (converted).
In experiment [3] the target is T2, Oxytocin receptor (Rattus norvegicus) (UniProt P70536).
T2 sequence (whole entry): T1 sequence (P70536 whole entry)
The experiment is described as §2.

The target of experiment [4] is Vasopressin V2 receptor (Rattus norvegicus) (UniProt Q00788). Put plainly: Antidiuretic activity at V2 receptor. Conditions: Urine.
Vasopressin V2 receptor (Rattus norvegicus), sequence (Q00788 whole entry): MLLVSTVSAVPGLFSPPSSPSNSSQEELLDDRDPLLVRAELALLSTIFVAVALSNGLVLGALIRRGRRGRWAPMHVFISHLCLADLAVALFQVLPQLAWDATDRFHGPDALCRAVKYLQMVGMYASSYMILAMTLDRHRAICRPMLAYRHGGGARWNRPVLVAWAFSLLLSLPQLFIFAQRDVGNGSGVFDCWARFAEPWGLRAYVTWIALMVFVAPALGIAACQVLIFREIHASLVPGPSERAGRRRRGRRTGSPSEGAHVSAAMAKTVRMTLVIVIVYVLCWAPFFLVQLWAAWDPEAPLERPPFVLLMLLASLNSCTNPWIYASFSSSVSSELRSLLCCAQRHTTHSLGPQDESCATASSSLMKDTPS
Experiment [5] deals with T1, Oxytocin receptor. The experiment is described as follows: In vitro activity for the anti-oxytocic activity with out Mg2+. The settings on record: read-out: pA2 (converted).
In experiment [6] the test system is Rattus norvegicus. The experiment is described as follows: In vivo activity for the anti-oxytocic activity. Format: functional, organism-based. Conditions: read-out: pA2 (converted).
In experiment [7] the target is T3, Vasopressin V1a receptor (Rattus norvegicus, UniProt P30560). Put plainly: Anti-vasopressor activity at V1a receptor. Conditions: read-out: pA2 (converted).
T3 sequence (P30560 whole entry): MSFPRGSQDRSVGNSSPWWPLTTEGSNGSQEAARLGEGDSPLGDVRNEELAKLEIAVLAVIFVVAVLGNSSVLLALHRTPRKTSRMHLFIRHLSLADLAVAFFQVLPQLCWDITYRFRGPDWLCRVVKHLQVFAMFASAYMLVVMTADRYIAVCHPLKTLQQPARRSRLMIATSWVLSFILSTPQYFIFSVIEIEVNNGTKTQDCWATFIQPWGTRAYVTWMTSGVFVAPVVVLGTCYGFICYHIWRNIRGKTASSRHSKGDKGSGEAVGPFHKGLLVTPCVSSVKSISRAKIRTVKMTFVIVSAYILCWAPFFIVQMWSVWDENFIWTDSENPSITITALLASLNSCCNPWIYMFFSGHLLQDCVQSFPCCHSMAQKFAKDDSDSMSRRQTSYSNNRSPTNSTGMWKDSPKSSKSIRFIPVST
Experiment [8] concerns the target Vasopressin V2 receptor (Rattus norvegicus, UniProt Q00788). Put plainly: Antidiuretic activity at V2 receptor. Format: tissue-based, Urine. Conditions: read-out: pA2 (converted).
The target of experiment [9] is T1, Oxytocin receptor. Put plainly: In vitro activity was determined for the anti-oxytocic activity with 0.5 mM Mg2+. The settings on record: read-out: pA2 (converted).
The target of experiment [10] is T1, Oxytocin receptor. The experiment is described as follows: In vitro activity for the anti-oxytocic activity with out Mg2+. Conditions: read-out: pA2 (converted).
Experiment [11] addresses T3, Vasopressin V1a receptor. Put plainly: Compound was evaluated for the anti-vasopressor activity at V1a receptor.. Conditions: read-out: pA2 (converted).
In experiment [12] the target is T2, Oxytocin receptor (Rattus norvegicus). Described as §1.

Vasopressin V2 receptor, sequence (Q00788 whole entry): as the sequence (Q00788 whole entry) above

On to `NC(=O)CC[C@@H]1NC(=O)[C@H](Cc2ccccc2)NC(=O)[C@H](Cc2ccc(O)cc2)NC(=O)[C@@H](N)CSSC[C@H](C(=O)N2CCC[C@H]2C(=O)N[C@@H](CCCN=C(N)N)C(=O)NCC(N)=O)NC(=O)[C@H](CC(N)=O)NC1=O`, for which the Kb in experiment [1] is 5750 nM; in [2] it was 214 nM.

With `CC[C@H](C)[C@@H]1NC(=O)[C@H](Cc2ccc(O)cc2)NC(=O)[C@H](N)CSSC[C@H](C(=O)N2CCC[C@H]2C(=O)N[C@@H](CC(C)C)C(=O)NCC(N)=O)NC(=O)[C@H](CC(N)=O)NC(=O)[C@H](CCC(N)=O)NC1=O`, the Oxytocic activity in [3] came to 0.62 U mg-1. Further, in experiment [4], the Antidiuretic activity was less than 0.002 U mg-1.

As for `COc1ccc(C[C@@H]2NC(=O)CC3(CCCCC3)SSC[C@H](C(=O)N3CCC[C@H]3C(=O)N[C@@H](CCCN=C(N)N)C(=O)NCC(N)=O)NC(=O)[C@H](CC(N)=O)NC(=O)[C@H](CCC(N)=O)NC(=O)[C@H](Cc3ccccc3)NC2=O)cc1`, the Kb in experiment [5] is 13.5 nM; in [6], 251 nM; in experiment [7], 13.5 nM; in [8], 2880 nM; in experiment [9] it was 25.1 nM.

Take `COc1ccc(C[C@@H]2NC(=O)CC3(CCCCC3)SSC[C@@H](C(=O)N3CCC[C@H]3C(=O)N[C@@H](CCCN=C(N)N)C(=O)NCC(N)=O)NC(=O)[C@H](CC(N)=O)NC(=O)[C@H](CCC(N)=O)NC(=O)[C@H](Cc3ccccc3)NC2=O)cc1`: the Kb was 7.41 nM in experiment [10], 2.4 nM in experiment [11] and 57.5 nM in [9].

On to `CC[C@H](C)[C@@H]1NC(=O)[C@H](Cc2ccc(O)cc2)NC(=O)[C@@H](N)CSSC[C@@H](C(=O)N2CCC[C@H]2C(=O)N[C@@H](CC(C)C)C(=O)NCC(N)=O)NC(=O)[C@H](CC(N)=O)NC(=O)[C@H](CCC(N)=O)NC1=O`, for which the results for the Oxytocic activity in [12] and in [3] were 486 U mg-1 and 520 U mg-1, respectively. This molecule also had an Antidiuretic activity in [4] of 4 U mg-1.

Consider `N=C(N)NCCC[C@H](NC(=O)[C@@H]1CCCN1C(=O)[C@@H]1CSSC[C@H](N)C(=O)N[C@@H](Cc2ccc(O)cc2)C(=O)N[C@@H](Cc2ccccc2)C(=O)N[C@@H](CCC(N)=O)C(=O)N[C@@H](CC(N)=O)C(=O)N1)C(=O)NCC(N)=O`, for which the Oxytocic activity in experiment [12] was determined as 25.5 U mg-1. Besides, in [4], the Antidiuretic activity came to 323 U mg-1.
